From ChEMBL document CHEMBL1145605, “Novel 2-imidazoles as potent and selective alpha1A adrenoceptor partial agonists” (Bioorg Med Chem Lett, 2008) come the findings set out here.

In series [1] the target is T1, Alpha-1A adrenergic receptor (Homo sapiens, UniProt P35348).
T1 sequence (P35348 whole entry): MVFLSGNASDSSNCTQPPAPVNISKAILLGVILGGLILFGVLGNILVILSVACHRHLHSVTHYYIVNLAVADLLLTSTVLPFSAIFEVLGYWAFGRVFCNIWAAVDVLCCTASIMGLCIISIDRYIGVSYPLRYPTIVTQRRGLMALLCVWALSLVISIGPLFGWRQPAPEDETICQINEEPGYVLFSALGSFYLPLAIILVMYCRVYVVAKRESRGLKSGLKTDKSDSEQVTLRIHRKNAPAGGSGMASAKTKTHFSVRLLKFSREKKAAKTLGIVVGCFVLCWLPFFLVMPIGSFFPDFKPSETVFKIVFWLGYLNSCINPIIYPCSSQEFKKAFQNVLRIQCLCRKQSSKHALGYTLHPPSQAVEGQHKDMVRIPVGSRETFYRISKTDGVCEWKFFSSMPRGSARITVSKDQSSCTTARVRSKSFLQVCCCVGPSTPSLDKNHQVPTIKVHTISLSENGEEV
As to the kind of experiment: Agonist activity at human cloned adrenergic alpha-1A receptor expressed in CHO cells assessed as calcium mobilization by FLIPR. It is filed as functional, cell-based.

Series [2] addresses T2, Alpha-1A adrenergic receptor (Homo sapiens) (UniProt P35348).
T2 sequence (whole entry): T1 sequence (P35348 whole entry)
Nature of the series: Agonist activity at human cloned adrenergic alpha-1A receptor expressed in CHO cells assessed as calcium mobilization by FLIPR relative to phenylephrine. The class given is functional, cell-based.

Series [3] concerns the target T3, Alpha-1B adrenergic receptor (Homo sapiens, UniProt P35368).
T3 sequence (P35368 whole entry): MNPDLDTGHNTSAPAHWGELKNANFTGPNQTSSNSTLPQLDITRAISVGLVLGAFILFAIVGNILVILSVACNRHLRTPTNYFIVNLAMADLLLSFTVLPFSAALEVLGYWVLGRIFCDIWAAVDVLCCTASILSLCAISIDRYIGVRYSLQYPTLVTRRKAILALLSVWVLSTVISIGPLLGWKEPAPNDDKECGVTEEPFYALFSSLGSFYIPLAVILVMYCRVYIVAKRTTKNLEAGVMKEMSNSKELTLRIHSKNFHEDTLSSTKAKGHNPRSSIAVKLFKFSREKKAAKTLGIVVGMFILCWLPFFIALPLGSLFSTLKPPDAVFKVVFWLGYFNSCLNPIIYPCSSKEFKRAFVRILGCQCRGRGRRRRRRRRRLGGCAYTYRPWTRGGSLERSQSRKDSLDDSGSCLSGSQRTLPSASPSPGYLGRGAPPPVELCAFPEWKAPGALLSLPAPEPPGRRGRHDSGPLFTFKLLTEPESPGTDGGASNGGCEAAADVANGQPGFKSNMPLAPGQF
As to the kind of experiment: Agonist activity at human cloned adrenergic alpha-1B receptor expressed in CHO cells assessed as calcium mobilization by FLIPR. It is filed as functional, cell-based. A general note: Calcium flux is commonly read through the fluorescence of an indicator in the cells.

Series [4] has as its target T4, Alpha-1D adrenergic receptor (Homo sapiens, UniProt P25100).
T4 sequence (P25100 whole entry): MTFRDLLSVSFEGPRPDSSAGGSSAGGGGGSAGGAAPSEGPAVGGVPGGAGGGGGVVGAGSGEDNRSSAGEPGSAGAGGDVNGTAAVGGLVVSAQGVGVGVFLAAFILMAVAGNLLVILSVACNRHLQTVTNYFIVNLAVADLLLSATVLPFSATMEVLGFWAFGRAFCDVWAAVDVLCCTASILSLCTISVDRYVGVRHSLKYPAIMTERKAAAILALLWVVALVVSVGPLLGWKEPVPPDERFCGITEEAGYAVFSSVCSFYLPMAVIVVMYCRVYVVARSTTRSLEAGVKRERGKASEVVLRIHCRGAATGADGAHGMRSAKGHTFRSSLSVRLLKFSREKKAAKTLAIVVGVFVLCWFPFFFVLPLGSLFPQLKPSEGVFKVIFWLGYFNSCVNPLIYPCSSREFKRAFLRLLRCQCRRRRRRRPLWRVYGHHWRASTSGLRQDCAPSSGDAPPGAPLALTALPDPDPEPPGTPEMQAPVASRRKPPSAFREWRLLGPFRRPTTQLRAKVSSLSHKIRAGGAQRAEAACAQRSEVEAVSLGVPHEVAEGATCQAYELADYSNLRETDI
Nature of the series: Agonist activity at human cloned adrenergic Alpha-1D receptor expressed in CHO cells assessed as calcium mobilization by FLIPR. The class given is functional, cell-based.

In series [5] the target is T5, Alpha-1D adrenergic receptor (Homo sapiens) (UniProt P25100).
T5 sequence (whole entry): T4 sequence (P25100 whole entry)
Nature of the series: Agonist activity at human cloned adrenergic Alpha-1D receptor expressed in CHO cells assessed as calcium mobilization by FLIPR relative to phenylephrine. It is filed as functional, cell-based.

Series [6] concerns the target T6, Alpha-2A adrenergic receptor (Homo sapiens, UniProt P08913).
T6 sequence (P08913 whole entry): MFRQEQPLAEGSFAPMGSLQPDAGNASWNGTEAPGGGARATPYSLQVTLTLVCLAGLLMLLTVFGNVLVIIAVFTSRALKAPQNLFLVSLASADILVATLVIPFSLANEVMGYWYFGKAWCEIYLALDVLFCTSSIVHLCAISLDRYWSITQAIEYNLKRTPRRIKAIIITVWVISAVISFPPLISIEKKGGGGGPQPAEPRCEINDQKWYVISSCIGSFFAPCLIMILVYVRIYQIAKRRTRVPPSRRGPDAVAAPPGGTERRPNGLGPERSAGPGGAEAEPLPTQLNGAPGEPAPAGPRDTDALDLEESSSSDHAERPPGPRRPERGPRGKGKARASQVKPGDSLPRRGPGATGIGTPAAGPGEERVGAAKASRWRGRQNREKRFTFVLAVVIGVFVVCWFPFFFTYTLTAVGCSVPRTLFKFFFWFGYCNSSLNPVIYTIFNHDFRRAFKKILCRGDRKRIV
As to the kind of experiment: Agonist activity at human cloned adrenergic alpha-2A receptor expressed in CHOK1 cells by beta-lactamase reporter gene assay. The class given is functional, cell-based, CHO-K1. On the technique in general: Reporter assays use an easily measured gene product as a stand-in for the process of interest.

For series [7], the target named is T7, Alpha-2A adrenergic receptor (Homo sapiens) (UniProt P08913).
T7 sequence (whole entry): T6 sequence (P08913 whole entry)
Nature of the series: Agonist activity at human cloned adrenergic alpha-2A receptor expressed in CHOK1 cells by beta-lactamase reporter gene assay relative to dexmeditomidine. The class given is functional, cell-based. To be noted: CHO-K1.

Series [8] deals with T8, Alpha-1B adrenergic receptor (Homo sapiens) (UniProt P35368).
T8 sequence (whole entry): T3 sequence (P35368 whole entry)
As to the kind of experiment: Agonist activity at human cloned adrenergic Alpha-1B receptor expressed in CHO cells assessed as calcium mobilization by FLIPR relative to phenylephrine. It is filed as functional, cell-based.

Series [9] in a line: Partition coefficient, log D at pH 7.4. The class given is physicochemical. To be noted: octanol/water.
Series [10] can be described thus: Intrinsic clearance in human liver microsomes. It is filed as ADME, Microsome. For orientation: Liver microsomes are a subcellular fraction often used to study metabolism.
The nature of series [11]: Intrinsic clearance per 10^6 cells in human hepatocytes. It is filed as ADME, cell-based, Liver, Hepatocyte.
Series [12] concerns the target Voltage-gated inwardly rectifying potassium channel KCNH2 (Homo sapiens, UniProt Q12809). As to the kind of experiment: Activity at human ERG at 10 uM.
Another series deals with CYP2C9 (Homo sapiens, UniProt P11712). Nature of the series: Inhibition of CYP2C9 at 10 uM. It is filed as ADME.
Sequence of CYP2C9 (P11712 whole entry): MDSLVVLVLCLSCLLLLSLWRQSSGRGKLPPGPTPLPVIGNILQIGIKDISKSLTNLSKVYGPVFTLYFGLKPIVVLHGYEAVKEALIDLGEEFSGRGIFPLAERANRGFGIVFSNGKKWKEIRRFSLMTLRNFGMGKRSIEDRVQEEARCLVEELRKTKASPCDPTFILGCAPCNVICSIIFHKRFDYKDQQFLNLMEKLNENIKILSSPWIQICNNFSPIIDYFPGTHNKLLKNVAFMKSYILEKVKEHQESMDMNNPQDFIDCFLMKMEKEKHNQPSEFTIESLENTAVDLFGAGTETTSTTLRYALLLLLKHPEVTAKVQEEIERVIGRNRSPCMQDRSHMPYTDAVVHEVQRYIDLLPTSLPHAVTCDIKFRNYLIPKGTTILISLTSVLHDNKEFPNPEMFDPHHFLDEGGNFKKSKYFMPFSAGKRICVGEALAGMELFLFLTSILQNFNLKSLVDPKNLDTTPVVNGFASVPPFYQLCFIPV
Another series concerns the target CYP2C19 (Homo sapiens, UniProt P33261). As to the kind of experiment: Inhibition of CYP2C19 at 10 uM. It is filed as ADME.
In the next series the target is CYP2D6 (Homo sapiens, UniProt P10635). Nature of the series: Inhibition of CYP2D6 at 10 uM. The class given is ADME.
Sequence of CYP2D6 (P10635 whole entry): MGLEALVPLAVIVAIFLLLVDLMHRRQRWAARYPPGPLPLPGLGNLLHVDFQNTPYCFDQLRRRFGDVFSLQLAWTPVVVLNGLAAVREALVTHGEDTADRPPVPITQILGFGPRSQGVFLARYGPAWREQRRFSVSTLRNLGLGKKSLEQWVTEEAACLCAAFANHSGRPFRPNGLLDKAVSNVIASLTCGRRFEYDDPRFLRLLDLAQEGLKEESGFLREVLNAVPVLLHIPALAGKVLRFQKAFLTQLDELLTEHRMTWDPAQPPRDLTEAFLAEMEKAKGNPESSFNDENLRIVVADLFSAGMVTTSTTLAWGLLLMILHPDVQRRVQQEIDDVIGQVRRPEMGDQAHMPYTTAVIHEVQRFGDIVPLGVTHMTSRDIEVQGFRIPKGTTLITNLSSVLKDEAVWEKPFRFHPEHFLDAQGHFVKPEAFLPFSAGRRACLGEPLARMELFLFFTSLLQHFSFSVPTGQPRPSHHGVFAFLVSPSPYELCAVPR
For a further series, the target named is CYP3A4 (Homo sapiens, UniProt P08684). As to the kind of experiment: Inhibition of CYP3A4 at 10 uM. It is filed as ADME.
Sequence of CYP3A4 (P08684 whole entry): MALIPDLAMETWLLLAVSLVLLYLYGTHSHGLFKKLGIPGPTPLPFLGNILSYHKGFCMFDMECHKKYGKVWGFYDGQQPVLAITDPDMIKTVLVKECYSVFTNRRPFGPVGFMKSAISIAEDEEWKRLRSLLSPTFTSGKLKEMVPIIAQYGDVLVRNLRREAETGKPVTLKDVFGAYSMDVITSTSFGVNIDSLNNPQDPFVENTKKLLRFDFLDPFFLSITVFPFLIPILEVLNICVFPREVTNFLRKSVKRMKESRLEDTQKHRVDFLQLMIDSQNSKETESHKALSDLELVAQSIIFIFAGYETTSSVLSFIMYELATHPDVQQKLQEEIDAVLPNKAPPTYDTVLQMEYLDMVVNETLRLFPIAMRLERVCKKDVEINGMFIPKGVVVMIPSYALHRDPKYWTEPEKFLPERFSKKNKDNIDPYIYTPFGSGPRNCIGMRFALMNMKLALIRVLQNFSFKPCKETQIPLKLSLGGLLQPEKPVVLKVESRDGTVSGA

Usually EC50 stands for the concentration that produces a half-maximal response. Usually Emax stands for the size of the effect at its maximum, as opposed to the concentration needed. By logD is commonly meant the decadic logarithm of the distribution of all forms, ionised or not, between an organic phase and buffer at a given pH. Usually microsomal CLint stands for a measure of how fast metabolising enzymes remove a compound, apart from limits set by blood flow. Broadly, the hepatocyte CLint is the rate of metabolic loss divided by the concentration. A higher hepatocyte CLint goes with faster metabolism. What is called inhibition is the percentage by which the read-out fell short of the control. High values mean strong suppression, low ones little suppression.

Sequence of CYP2C19 (P33261 whole entry): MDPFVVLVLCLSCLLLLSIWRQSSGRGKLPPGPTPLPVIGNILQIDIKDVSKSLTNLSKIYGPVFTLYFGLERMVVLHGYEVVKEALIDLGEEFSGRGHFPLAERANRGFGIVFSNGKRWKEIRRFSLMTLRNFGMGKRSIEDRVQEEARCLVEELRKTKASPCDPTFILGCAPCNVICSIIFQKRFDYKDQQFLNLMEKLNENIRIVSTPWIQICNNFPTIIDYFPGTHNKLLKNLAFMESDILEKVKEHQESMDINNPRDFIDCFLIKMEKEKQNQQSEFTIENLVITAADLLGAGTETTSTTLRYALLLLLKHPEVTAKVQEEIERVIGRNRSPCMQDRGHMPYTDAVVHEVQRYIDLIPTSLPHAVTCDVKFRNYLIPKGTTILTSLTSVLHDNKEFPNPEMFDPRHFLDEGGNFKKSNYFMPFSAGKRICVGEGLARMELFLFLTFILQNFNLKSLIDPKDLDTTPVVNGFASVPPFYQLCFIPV
Sequence of Voltage-gated inwardly rectifying potassium channel KCNH2 (Q12809 whole entry): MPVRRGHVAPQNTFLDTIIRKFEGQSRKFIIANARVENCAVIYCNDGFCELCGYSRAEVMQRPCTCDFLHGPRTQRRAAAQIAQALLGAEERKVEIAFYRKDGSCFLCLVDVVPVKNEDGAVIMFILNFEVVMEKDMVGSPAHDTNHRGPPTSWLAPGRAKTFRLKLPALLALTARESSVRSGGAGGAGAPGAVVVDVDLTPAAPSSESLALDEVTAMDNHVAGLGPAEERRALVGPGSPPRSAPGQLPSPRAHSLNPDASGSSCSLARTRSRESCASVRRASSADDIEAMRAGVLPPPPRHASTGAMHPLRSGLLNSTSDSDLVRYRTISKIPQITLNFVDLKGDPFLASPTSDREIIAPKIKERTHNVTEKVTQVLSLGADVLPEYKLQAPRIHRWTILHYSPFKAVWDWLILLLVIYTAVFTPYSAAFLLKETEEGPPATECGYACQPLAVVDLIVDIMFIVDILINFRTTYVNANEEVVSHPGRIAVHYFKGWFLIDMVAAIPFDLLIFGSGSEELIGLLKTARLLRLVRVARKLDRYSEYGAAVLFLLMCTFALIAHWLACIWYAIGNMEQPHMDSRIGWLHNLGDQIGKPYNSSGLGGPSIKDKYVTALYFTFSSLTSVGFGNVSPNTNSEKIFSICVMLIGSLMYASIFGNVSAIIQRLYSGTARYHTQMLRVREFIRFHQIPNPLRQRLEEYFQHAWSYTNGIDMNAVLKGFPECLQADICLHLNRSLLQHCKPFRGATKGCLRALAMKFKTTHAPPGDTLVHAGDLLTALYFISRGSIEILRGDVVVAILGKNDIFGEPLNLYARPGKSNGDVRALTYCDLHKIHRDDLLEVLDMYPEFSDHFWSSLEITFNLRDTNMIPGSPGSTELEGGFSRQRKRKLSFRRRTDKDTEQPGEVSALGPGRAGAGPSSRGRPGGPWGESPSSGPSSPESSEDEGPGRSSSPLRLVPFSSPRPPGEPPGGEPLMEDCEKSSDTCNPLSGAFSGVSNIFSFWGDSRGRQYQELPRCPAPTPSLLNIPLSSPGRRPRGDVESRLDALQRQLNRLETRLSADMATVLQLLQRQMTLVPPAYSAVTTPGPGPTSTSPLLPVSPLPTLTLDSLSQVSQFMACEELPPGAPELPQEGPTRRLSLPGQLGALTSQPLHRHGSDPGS

As for `c1cc(-c2ncco2)c2c(c1)C(c1ncc[nH]1)CC2` (centres undefined), the EC50 in series [1] was 0.17 µM; in series [3], > 10 µM; in [4], 1.39 µM; in series [6], > 10 µM. Further, the Emax came to 63% in series [2] and 38% in series [5].

On to `c1cc(-c2cn[nH]c2)c2c(c1)C(c1ncc[nH]1)CC2` (centres undefined), for which the EC50 in series [1] is 0.014 µM; in series [3], > 10 µM; in series [4], 0.319 µM; in series [6], > 10 µM. The Emax in series [2] is 84%; in series [5], 52%.

As for `c1cncc(-c2cccc3c2CCC3c2ncc[nH]2)c1` (centres undefined), the EC50 in series [1] is 2.06 µM; in [3], > 10 µM; in [4], > 10 µM; in [6], 4.58 µM. Moreover, the figures for the Emax in series [2] and in series [7] were 36% and 25%, respectively.

In the case of `Cc1n[nH]cc1-c1cccc2c1CCC2c1ncc[nH]1` (centres undefined), the Emax in [2] was 91%; in series [8] it was 14%; in [5], 66%.

Turning to `c1cc(-c2nccs2)c2c(c1)C(c1ncc[nH]1)CC2` (centres undefined), the EC50 in [1] was 0.426 µM; in [3], > 10 µM; in series [4] it was 3.19 µM; in [6] it was > 10 µM. Besides, the Emax in [2] amounted to 64%; in [5], 27%.

For the molecule `CNC(=O)c1cccc2c1CCC2c1ncc[nH]1` (centres undefined), the EC50 in [1] is 2.2 µM; in series [3] it was > 10 µM; in [4] it was > 10 µM; in series [6], 4.34 µM. In addition, the Emax in [2] amounted to 59%; in [7], 44%.

Consider `CS(=O)(=O)Nc1c(Cl)ccc2c1CCCC2c1ncc[nH]1` (centres undefined), for which the EC50 in [1] was 0.043 µM; in series [3], > 10 µM; in series [4] it was > 10 µM; in series [6], > 10 µM. In addition, the Emax in [2] is 61%. The logD in series [9] came to 1.5. Besides, in [10], the microsomal CLint is < 7 µL/min/mg. The hepatocyte CLint in [11] was < 5 µL/min/1e6 cells. For the same molecule, the Activity in series [12] was 0%. Further, the inhibition at 10 µM against CYP2C9, against CYP2C19, against CYP2D6 and against CYP3A4 was < 25% throughout.

In the case of `COc1c(C)ccc2c1CCC2c1ncc[nH]1` (centres undefined), the EC50 in [1] is 0.167 µM; in [3] it was > 10 µM; in series [4], > 10 µM; in series [6], 0.327 µM. Further, the figures for the Emax in series [2] and in series [7] were 40% and 89%, respectively.

In the case of `COc1cccc2c1CCC2c1ncc[nH]1` (centres undefined), the EC50 was 0.032 µM in series [1], > 10 µM in [3], > 10 µM in series [4] and 0.027 µM in series [6]. The results for the Emax in [2] and in series [7] were 65% and 100%, respectively.

In the case of `c1cc(-c2ccn[nH]2)c2c(c1)C(c1ncc[nH]1)CC2` (centres undefined), the results for the Emax in [2], in series [8] and in series [5] were 83%, 32% and 57%, respectively.

In the case of `Cn1cc(-c2cccc3c2CCC3c2ncc[nH]2)cn1` (centres undefined), the EC50 is > 2.9 µM in series [1], > 10 µM in series [3], > 10 µM in series [4] and > 10 µM in series [6]. The Emax in series [2] turned out to be 12%.

On to `Cc1oncc1-c1cccc2c1CCC2c1ncc[nH]1` (centres undefined), for which the EC50 in series [1] was 0.111 µM; in [3], > 10 µM; in series [4], > 10 µM; in series [6], > 10 µM. The Emax in series [2] is 63%.

Turning to `c1ccc2c(c1)CCCC2c1ncc[nH]1` (centres undefined), the EC50 is 0.385 µM in series [1], 0.791 µM in series [3], 0.364 µM in series [4] and 0.722 µM in series [6]. For the same molecule, the Emax in [2] stood at 71%; in [8], 58%; in [5], 74%; in series [7], 105%.

As to `Cn1nccc1-c1cccc2c1CCC2c1ncc[nH]1` (centres undefined), the EC50 was 0.278 µM in [1], > 10 µM in series [3], > 10 µM in [4] and > 10 µM in [6]. Moreover, the Emax in series [2] was found to be 58%.

Regarding `CCS(=O)(=O)Nc1cccc2c1CCC2c1ncc[nH]1` (centres undefined), the EC50 in [1] is 0.032 µM; in [3], > 10 µM; in series [4] it was > 10 µM; in series [6] it was > 10 µM. For the same molecule, the Emax in series [2] came out at 86%.
